Experimental data published in patent US20070259087A1, “Antimicrobial Peptides” (Novozymes A/S, priority 2003, published 2007).
Read-outs that look alike come from different tables or passages of the source. Where no end group is shown, it is not given here.

Assays:
[1] = test system: E. coli TOP10; format: cell-based; settings: TOP10, 14 h
Description: A range of synthetic antimicrobial polypeptides were expressed in E. coli TOP10 (Invitrogen) using arabinose as inducer, as disclosed in Example 1 of International patent application WO 00/73433 (with minor modifications). […] Briefly, fresh overnight cultures grown in RM medium containing 0.2% glucose and ampicillin (100 μg/ml) were diluted 300-fold into 150 microliter of RM containing 0.2% glycerol and ampicillin (100 μg/ml) and different concentrations of arabinose (0, 0.01% or 0.1%) in a microtiter plate and incubated at 37 degrees Celsius with vigorous shaking. The growth curve was monitored by measuring OD450 using a Bioscreen C Microbiology reader (Thermo Electron Corporation) at intervals of 30 minutes for 14 hours (see Invitrogen protocol of the pBAD/gill A, B and C vectors catalogue nos. V450-01 for buffer and media composition). The percentage of growth inhibition was calculated as the end point OD measurement of each sample divided by the end point OD measurement obtained from cells containing the control vector and multiplied by 100. The formula is the following: [formula] where “blank OD” corresponds to the OD of an empty well.

[2] = test system: Eschericia coli; experiment: Antimicrobial activity by radial diffusion assay (MEC); format: cell-based
Description: (§1) A modified version of a previously published protocol has been applied in the detection of antimicrobial activity (Lehrer et al., (1991) Ultra sensitive assays for endogenous antimicrobial polypeptides J Immunol Methods 137: 167-173). Target bacteria (10^6 colony forming units (CFU)) were added to 10 ml of underlay agarose (1% low electro-endosmosis agarose, 0.03% Trypticase soy broth, 10 mM sodium phosphate, pH 7.4, 37 degrees Celsius). Suspension was solidified on an INTEGRID Petri Dish (Becton Dickinson Labware). A 3 mm Gel Puncher was used to make holes in the underlay agarose (Amersham Pharmacia Biotech, Sweden). Samples were added to the holes and incubated at 37 degrees Celsius, 3 hours. An overlay was poured on top and the plate was incubated overnight (LB media, 7.5% Agar). Antimicrobial activity was seen as bacterial clearing zones around the wells. Living cells was counterstained by adding 10 ml, 0.2 mM MTT (3-(4,5-Dimethylthiazol-2-yl)-2,5-diphenyltetrazolium bromide Thiazolyl blue).

[3] = test system: Bacillus subtilis; experiment: as above; format: cell-based
Description: as §1

[4] = test system: Pseudomonas aeroginosa (ATCC 27853)
Description: The selected test organism was Pseudomonas aeroginosa (ATCC 27853).

[5] = test system: Pseudomonas aeroginosa (ATCC 27853); experiment: Killing kinetics in MHB (viable cells, CFU/ml); format: cell-based; settings: 4×MIC concentration
Description: The rate of killing of Gen2 was determined in MHB using Pseudomonas aeroginosa (ATCC 27853) as the test organism. The bacteria were incubated with Gen2 (at 4×MIC concentration). At different time-points, several dilutions of the preparation were plated and an estimate of viable cells was determined (CFU/ml). The results in Table 2 indicate that Gen2 rapidly kills the bacteria, with a near 3-log reduction in CFU within 30 minutes.

GLLSKLKKAAKKALKHVL [Gen2, GLLSKLKKAAKKALKHVL]
Growth inhibition using 0.01% arabinose (%) [1]: 51%
Growth inhibition using 0.1% arabinose (%) [1]: 48%
antimicrobial activity (MEC) [2]: < 64 µg/mL
antimicrobial activity (MEC) [3]: < 64 µg/mL
MIC ([4]; ATCC 27853): 15 µg/mL
MIC ([4]; ATCC 27853, pH 5.5): 16 µg/mL
MIC ([4]; ATCC 27853, pH 6.5): 16 µg/mL
viable cells ([5]; 0 hours): 100.000 CFU/ml
viable cells ([5]; 0.5 hours): 115 CFU/ml
viable cells ([5]; 1.5 hours): 60 CFU/ml
viable cells ([5]; 24 hours): <20 CFU/ml
reduction in CFU ([5]; within 30 minutes): ~3 log
